{"source": "ChEMBL document CHEMBL6074686", "about": "(Eur J Med Chem, 2025)", "key": {"SK-OV-3 [1]": {"test_system": "SK-OV-3", "experiment": "Induction of cell cycle arrest in human SK-OV-3 cells assessed as decrease in Cyclin-B1 expression at 100 nM incubated for 24 hrs by Western blotting analysis", "assay_type": "functional, cell-based"}, "MCF7 [2]": {"test_system": "MCF7", "experiment": "Induction of apoptosis in human MCF7 cells assessed as upregulation of cleaved-PARP expression at 25 to 50 nM incubated for 24 hrs by Western blotting analysis", "assay_type": "functional, cell-based", "details": "dose 25-50 nM"}, "SK-OV-3 [3]": {"test_system": "SK-OV-3", "experiment": "Induction of cell cycle arrest in human SK-OV-3 cells assessed as increase in G2/M phase cells at 20 nM incubated for 24 hrs PI staining based flow cytometric analysis (reference value: 24.6 +/- 2.0%)", "assay_type": "functional"}, "MCF7 [4]": {"test_system": "MCF7", "experiment": "Inhibition of cell migration in human MCF7 cells assessed as increase in cell density at 0 to 10 nM incubated for 24 hrs by wound healing assay", "assay_type": "functional, cell-based", "details": "dose 0-10 nM"}, "SK-OV-3 [5]": {"test_system": "SK-OV-3", "experiment": "Inhibition of cell migration in human SK-OV-3 cells assessed as area of migrated cells at 20 nM incubated for 24 hrs by crystal violet staining based inverted microscopic analysis (reference value: 30.1 +/- 1.3 mm^3)", "assay_type": "functional"}, "MCF7 [6]": {"test_system": "MCF7", "experiment": "Inhibition of cell migration in human MCF7 cells assessed as wound closure ratio at 5 nM incubated for 24 hrs by wound healing assay (reference value: 100%)", "assay_type": "functional", "set-up": "scale not given: the % may be the effect or the level left"}, "[7]": {"experiment": "Toxicity in female BALB/c nude mouse xenografted with human SK-OV-3 cells assessed as drug tolerance by measuring loose stools at 30 mg/kg, administered via tail vein for 5 days and measured daily", "assay_type": "organism-based, Feces", "details": "in vivo, iv, 120 h, time 5 day"}, "MCF7 [8]": {"test_system": "MCF7", "experiment": "Inhibition of cell migration in human MCF7 cells assessed as ratio of migrated cells at 25 nM incubated for 24 hrs by crystal violet staining based inverted microscopic analysis (reference value: 100%)", "assay_type": "functional", "set-up": "scale not given: the % may be the effect or the level left"}, "[9]": {"experiment": "Toxicity in female BALB/c nude mouse xenografted with human SK-OV-3 cells assessed as effect on body weight at 5 to 10 mg/kg, […] via tail vein once every 2 to 3 days", "assay_type": "organism-based", "details": "in vivo, dose lower 5 mg/kg, time lower 2 day, dose upper 10 mg/kg, time upper 3 day"}}, "note": "Active and inactive are the calls of the source. The calls are words filed in the database; no cut-off is given here.", "data": [{"smiles": "CNc1nc(N2CCCc3cc(OC)ccc32)c2cc(F)ccc2n1", "values": [{"measurement": "Activity", "setting": "SK-OV-3 [1]", "value": "Active"}, {"measurement": "Activity", "setting": "MCF7 [2]", "value": "Active"}, {"measurement": "Activity", "setting": "SK-OV-3 [3]", "value": 90.6, "unit": "%"}, {"measurement": "inhibition", "setting": "MCF7 [4]", "value": "Active"}, {"measurement": "Activity", "setting": "SK-OV-3 [5]", "value": 3.6, "unit": "mm3"}, {"measurement": "Activity", "setting": "MCF7 [6]", "value": 97.3, "unit": "%"}, {"measurement": "Activity", "setting": "[7]", "value": "Toxic"}, {"measurement": "Activity", "setting": "MCF7 [8]", "value": 13.2, "unit": "%"}, {"measurement": "Activity", "setting": "[9]", "value": "Non-toxic"}]}]}
